Reference: patent US20240197658A1, “COMPOSITION FOR INHIBITING ANTI-CANCER DRUG RESISTANCE” (AJOU UNIVERSITY INDUSTRY-ACADEMIC COOPERATION FOUNDATION, priority 2022, published 2024)

Experiments:
Format in all cases: cell-based
[1] = system: fibroblasts CAF47, CAF51, CAF98, and CAF104; assay: Confirmation of inhibition of senescence of fibroblasts (shape observation); conditions: FIG. 2
Protocol: An experiment was performed to confirm changes in shapes of fibroblasts by treating several fibroblasts CAF47, CAF51, CAF98, and CAF104 with an anti-cancer drug, 5-fluorouracil (5-FU), and then treating Example thereto.
FIG. 2 illustrates results of observing the shapes of fibroblasts under various conditions according to Experimental Example of the present disclosure.

SNU668 cells = assay: Cell viability of gastric cancer cells cultured in fibroblast conditioned media; conditions: FIG. 3
Protocol: Gastric cancer cells, SNU668 cells, were cultured in conditioned media of fibroblasts, CAF98 and CAF104, respectively, and treated with Example to confirm changes in cell viability of cancer cells.
FIG. 3 illustrates results of confirming the cell viability of SNU66, a gastric cancer cell, under various conditions according to Experimental Example of the present disclosure.

SNU668 = assay: Migration of gastric cancer cells in fibroblast condition media / co-culture with CAFs; conditions: for migration of gastric cancer cells: FIGS. 4 and 5
Protocol: An experiment was performed to confirm changes in migration of gastric cancer cells when treating gastric cancer cells with a substance according to Example (ftaxilide).
SNU668 was co-cultured with 5-FU in various types of fibroblast condition media, and sequentially additionally treated with 5-FU and Example to confirm changes in the migration of gastric cancer cells.
FIG. 4 illustrates results of observing the migration of SNU668, a gastric cancer cell, under various conditions according to Experimental Example of the present disclosure.
FIG. 5 illustrates results of measuring the migration of SNU668, a gastric cancer cell, under various conditions according to Experimental Example of the present disclosure.

[2] = CAF treated with Example (100 μM 5-FU+5 μM Example)

Row | SMILES | shapes of fibroblasts (characteristics of senescent cells) ([1]; fibroblasts CAF47, CAF51, CAF98, CAF104 treated with 5-FU) | cell viability of cancer cells (SNU668 cells; SNU668 in conditioned medium of CAF98 and CAF104, treated with 5-FU (C98_5FU, C104_5FU)) | migration of gastric cancer cells (SNU668; CAFs senesced by 5-FU then co-cultured with SNU668 (100 μM 5-FU)) | migration of gastric cancer cells (SNU668; SNU668 treated with 5-FU (SNU668+5FU)) | shapes of fibroblasts ([1]; fibroblasts treated with 5-FU, then with Example) | cell viability of cancer cells (SNU668 cells; SNU668 in conditioned medium of CAF98 and CAF104, 5-FU, further treated with Example (C98_5FU_Ftaxil, C104_5FU_Ftaxil)) | senescence of CAF (SNU668; [2]) | migration of gastric cancer cells (SNU668; [2])
1 | O=c1[nH]cc(F)c(=O)[nH]1 [Example 5-FU, 5-fluorouracil] | the cell sizes increased and the cell growth rate slowed down | the cell viability of cancer cells further increased | the migration of gastric cancer cells further increased | the migration of gastric cancer cells increased |  |  |  | 
2 | Cc1cccc(C)c1NC(=O)c1ccccc1C(=O)O [Example, Ftaxilide] |  |  |  |  | the senescent fibroblasts returned to their original shapes | decreased again | the senescence of CAF was prevented | decreased again
